Patent EP0041644B1 (priority 1980, dated 1981)

How the values were obtained:
L1210 Leukemia [1] = assay: L1210 Leukemia - Test 3 (vehicle comparison); type: in vivo, mice; settings: Day 1 only, vehicle Saline
L-1210 Leukemia [2] = assay: L-1210 Leukemia (Table IX); type: in vivo, mice
B16 Melanoma = B16 Melanoma - Test 2 (ip tumor brei); type: in vivo, mice; settings: QD +9
L-1210 Leukemia [3] = assay: L-1210 Leukemia (Table VIII)
Description: The sodium and ammonium salts of the present invention were tested against transplantable mouse tumors as indicated below. The methodology used generally followed the protocols of the National Cancer Institute (Cancer Chemotherapy Rep., Part 3, 3, 1-103 (1972). The essential experimental details are given at the bottom of the following tables.

L1210 Leukemia [4] = assay: L1210 Leukemia - Test 1 (survival of tumor-bearing mice); type: in vivo
Source text: This evaluation of the ammonium salt finds the drug to be active against L1210 (ip) leukemia when administered ip one day post-implant of 10^6 L1210 cells (maximum T/C was 164%). […] The vehicle for the ammonium salt was water.

L1210 Leukemia [5] = assay: as above; type: in vivo; settings: for Survivors Day 5(30): qd 1→9, in saline
[6] = 0.5 mg/kg/day ip, qd 1→9, in H2O
[7] = 0.5 mg/kg/day ip, qd 1→9, in saline
[8] = 1 mg/kg/day ip, qd 1→9, in saline
[9] = 2 mg/kg/day ip, qd 1→9, in saline
[10] = 4 mg/kg/day ip, d. 1 only, in H2O
[11] = 4 mg/kg/day ip, d. 1 only, in saline
[12] = 6 mg/kg/day ip, d. 1 only, in H2O
[13] = 6 mg/kg/day ip, d. 1 only, in saline
[14] = 8 mg/kg/day ip, d. 1 only, in H2O
[15] = 8 mg/kg/day ip, d. 1 only, in saline
[16] = 10 mg/kg/day ip, d. 1 only, in H2O
[17] = 10 mg/kg/day ip, d. 1 only, in saline

## N.N.[Cl][Pt][Cl] [Cis-DDP, cis-diammine dichloroplatinum (II)]
L1210 Leukemia [1]; 4 mg/kg ip
  Average Weight Change: −1.7
  Effect MST % T/C: 143 % T/C
  MST Days: 10.0 days
  Survivors Day 5: 6/6
L1210 Leukemia [1]; 6 mg/kg ip
  Average Weight Change: −2.3
  Effect MST % T/C: 143 % T/C
  MST Days: 10.0 days
  Survivors Day 5: 6/6
L1210 Leukemia [1]; 8 mg/kg ip
  Average Weight Change: −1.8
  Effect MST % T/C: 150 % T/C
  MST Days: 10.5 days
  Survivors Day 5: 6/6
L1210 Leukemia [1]; 10 mg/kg ip
  Average Weight Change: −4.5
  Effect MST % T/C: 150 % T/C
  MST Days: 10.5 days
  Survivors Day 5: 6/6
L-1210 Leukemia [2]; 0.4 mg/kg/inj ip, qd 1→9
  Average Weight Change,g: -0.6 g
  Effect MST % T/C: 108 % T/C
  MST Days: 7.0 days
  Survivors Day 5(45): 6/6
L-1210 Leukemia [2]; 0.8 mg/kg/inj ip, qd 1→9
  Average Weight Change,g: -2.1 g
  Effect MST % T/C: 138 % T/C
  MST Days: 9.0 days
  Survivors Day 5(45): 6/6
L-1210 Leukemia [2]; 1.6 mg/kg/inj ip, qd 1→9
  Average Weight Change,g: -2.9 g
  Effect MST % T/C: 154 % T/C
  MST Days: 10.0 days
  Survivors Day 5(45): 6/6
L-1210 Leukemia [2]; 2 mg/kg/inj ip, Day 1
  Average Weight Change,g: -0.7 g
  Effect MST % T/C: 138 % T/C
  MST Days: 9.0 days
  Survivors Day 5(45): 6/6
L-1210 Leukemia [2]; 2.4 mg/kg/inj ip, qd 1→9
  Average Weight Change,g: -3.8 g
  Effect MST % T/C: 177 % T/C
  MST Days: 11.5 days
  Survivors Day 5(45): 6/6
L-1210 Leukemia [2]; 4 mg/kg/inj ip, Day 1
  Average Weight Change,g: -2.1 g
  Effect MST % T/C: 123 % T/C
  MST Days: 8.0 days
  Survivors Day 5(45): 6/6
L-1210 Leukemia [2]; 6 mg/kg/inj ip, Day 1
  Average Weight Change,g: -3.7 g
  Effect MST % T/C: 154 % T/C
  MST Days: 10.0 days
  Survivors Day 5(45): 6/6
L-1210 Leukemia [2]; 8 mg/kg/inj ip, Day 1
  Average Weight Change,g: -3.4 g
  Effect MST % T/C: 185 % T/C
  MST Days: 12.0 days
  Survivors Day 5(45): 6/6
L-1210 Leukemia [2]; qd 1→9 (cis-DDP 2.4, parent 8 and 12, sodium salt 12 mg/kg/injection)
  maximum T/C: 177%
L-1210 Leukemia [2]; single ip injection at maximum tolerated dose (cis-DDP 8 mg/kg, the two others 36 mg/kg)
  maximum T/C: 185%
B16 Melanoma; 0.4 mg/kg/day ip
  Average Weight Change: -2.0 g
  Effect MST % T/C: 121 % T/C
  MST Days: 25.0 days
  Survivors Day 10 (60): 8/10
B16 Melanoma; 0.8 mg/kg/day ip
  Average Weight Change: -1.5 g
  Effect MST % T/C: 139 % T/C
  MST Days: 38.5 days
  Survivors Day 10 (60): 10/10
B16 Melanoma; 1.6 mg/kg/day ip
  Average Weight Change: -2.7 g
  Effect MST % T/C: 173 % T/C
  MST Days: 35.5 days
  Survivors Day 10 (60): 10/10
L-1210 Leukemia [3]; 0.4 mg/kg/inj ip, qd 1→9
  Average Weight Change,g: +0.8 g
  Effect MST % T/C: 117 % T/C
  MST Days: 7.0 days
  Survivors Day 5(30): 6/6
L-1210 Leukemia [3]; 0.8 mg/kg/inj ip, qd 1→9
  Average Weight Change,g: -0.8 g
  Effect MST % T/C: 133 % T/C
  MST Days: 8.0 days
  Survivors Day 5(30): 6/6
L-1210 Leukemia [3]; 1.6 mg/kg/inj ip, qd 1→9
  Average Weight Change,g: -2.5 g
  Effect MST % T/C: 200 % T/C
  MST Days: 12.0 days
  Survivors Day 5(30): 6/6
L-1210 Leukemia [3]; 2.4 mg/kg/inj ip, qd 1→9
  Average Weight Change,g: -3.1 g
  Effect MST % T/C: 167 % T/C
  MST Days: 10.0 days
  Survivors Day 5(30): 6/6
L-1210 Leukemia [3]; 4 mg/kg/inj ip, d.1
  Average Weight Change,g: -1.5 g
  Effect MST % T/C: 167 % T/C
  MST Days: 10.0 days
  Survivors Day 5(30): 6/6
L-1210 Leukemia [3]; 6 mg/kg/inj ip, d.1
  Average Weight Change,g: -3.7 g
  Effect MST % T/C: 167 % T/C
  MST Days: 10.0 days
  Survivors Day 5(30): 6/6
L-1210 Leukemia [3]; 8 mg/kg/inj ip, d.1
  Average Weight Change,g: -2.8 g
  Effect MST % T/C: 158 % T/C
  MST Days: 9.5 days
  Survivors Day 5(30): 6/6
L-1210 Leukemia [3]; 10 mg/kg/inj ip, d.1
  Average Weight Change,g: -2.0 g
  Effect MST % T/C: 208 % T/C
  MST Days: 12.5 days
  Survivors Day 5(30): 6/6
L-1210 Leukemia [3]; qd 1→9, 1.6 mg/kg/inj
  maximum T/C: 200%
L-1210 Leukemia [3]; single ip injections
  maximum T/C: 208%
L-1210 Leukemia [3]; single ip injections, dose of maximum T/C
  optimal doses: 10 mg/kg
L1210 Leukemia [4]; [6]
  Average Weight Change: −3.8
  Effect MST % T/C: 143 % T/C
  MST Days: 10.0 days
  Survivors Day 5(30): 6/6
L1210 Leukemia [4]; [7]
  Average Weight Change: +1.5
  Effect MST % T/C: 100 % T/C
  MST Days: 7.0 days
L1210 Leukemia [4]; 1 mg/kg/day ip, qd 1→9, in H2O
  Average Weight Change: −3.7
  Effect MST % T/C: 114 % T/C
  MST Days: 8.0 days
  Survivors Day 5(30): 6/6
L1210 Leukemia [4]; [8]
  Average Weight Change: −0.9
  Effect MST % T/C: 150 % T/C
  MST Days: 10.5 days
  Survivors Day 5(30): 6/6
L1210 Leukemia [4]; 2 mg/kg/day ip, qd 1→9, in H2O
  Average Weight Change: −4.0
  Effect MST % T/C: 86 % T/C
  MST Days: 6.0 days
  Survivors Day 5(30): 4/6
L1210 Leukemia [4]; [9]
  Average Weight Change: −3.3
  Effect MST % T/C: 250 % T/C
  MST Days: 17.5 days
L1210 Leukemia [4]; [10]
  Average Weight Change: −5.9
  Effect MST % T/C: 100 % T/C
  MST Days: 7.0 days
  Survivors Day 5(30): 6/6
L1210 Leukemia [4]; [11]
  Average Weight Change: −0.7
  Effect MST % T/C: 164 % T/C
  MST Days: 11.5 days
  Survivors Day 5(30): 6/6
L1210 Leukemia [4]; [12]
  Average Weight Change: TOX
  Effect MST % T/C: TOX
  MST Days: TOX
  Survivors Day 5(30): 1/6
L1210 Leukemia [4]; [13]
  Effect MST % T/C: 186 % T/C
  MST Days: 13.0 days
  Survivors Day 5(30): 6/6
L1210 Leukemia [4]; [14]
  Average Weight Change: TOX
  Effect MST % T/C: TOX
  MST Days: TOX
  Survivors Day 5(30): 4/6
L1210 Leukemia [4]; [15]
  Effect MST % T/C: 193 % T/C
  MST Days: 13.5 days
  Survivors Day 5(30): 6/6
L1210 Leukemia [4]; [16]
  Average Weight Change: TOX
  Effect MST % T/C: TOX
  MST Days: TOX
  Survivors Day 5(30): 1/6
L1210 Leukemia [4]; [17]
  Average Weight Change: −3.6
  MST Days: 14.5 days
  Survivors Day 5(30): 6/6
L1210 Leukemia [5]; 0.5 mg/kg/day ip
  Survivors Day 5(30): 6/6
L1210 Leukemia [5]; 2 mg/kg/day ip
  Survivors Day 5(30): 6/6
L1210 Leukemia [5]; [13]
  Average Weight Change: −2.8
L1210 Leukemia [5]; [15]
  Average Weight Change: −4.1
L1210 Leukemia [5]; [17]
  Effect MST % T/C: 207 % T/C
